Assay results as given in PubChem BioAssay (NCI).
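Where inhibition never reached the appropriate level, the endpoint shown equals the highest concentration tested. Otherwise, values were interpolated linearly from a five-concentration, 48-hour dose response in 96-well plates. TGI: concentration producing complete growth inhibition.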

Tests used:
Assay in all cases: NCI tumour cell line growth inhibition, 48 h
[1] = test system: HCC-2998 colon
[2] = test system: DU-145 prostate
[3] = test system: NCI-H460 lung
[4] = test system: HL-60(TB) leukemia
[5] = test system: OVCAR-8 ovarian
[6] = test system: SK-MEL-28 melanoma
[7] = test system: SNB-75 CNS
[8] = test system: SK-MEL-5 melanoma
[9] = test system: T-47D breast
[10] = test system: HOP-62 NSCLC
[11] = test system: MOLT-4 leukemia
[12] = test system: SK-MEL-2 melanoma
[13] = test system: HS 578T breast
[14] = test system: EKVX NSCLC
[15] = test system: NCI-H226 lung
[16] = test system: COLO 205 colon
[17] = test system: MALME-3M melanoma
[18] = test system: ACHN renal
[19] = test system: M14 melanoma
[20] = test system: MDA-N

Row | SMILES | TGI [1] [µM] | TGI [2] [µM] | TGI [3] [µM] | TGI [4] [µM] | TGI [5] [µM] | TGI [6] [µM] | TGI [7] [µM] | TGI [8] [µM] | TGI [9] [µM] | TGI [10] [µM] | TGI [11] [µM] | TGI [12] [µM] | TGI [13] [µM] | TGI [14] [µM] | TGI [15] [µM] | TGI [16] [µM] | TGI [17] [µM] | TGI [18] [µM] | TGI [19] [µM] | TGI [20] [µM]
1 | CCOc1cc2c(cc1O)C=C[C@@H]1[C@@H]2CC[C@]2(C)[C@@H](O)CC[C@@H]12 | 18.7 | 26.8 | 12.5 | 7.58 | > 62.4 | > 100 | > 58.6 | 23.6 | 77.4 | 49.3 | 73.1 | 42 | > 100 | > 100 | 56.9 | 47.2 | 35.6 | > 100 | 28 | > 100
2 | CC(C)(C)c1ccc(NS(=O)(=O)c2ccc(N)cc2)cc1 | 39.5 | 89.5 | > 100 | 38.1 | 68.5 | 63.7 | 92.7 | 32.5 | > 100 | 13.7 | 34.5 | 36.5 | 59.3 | 71.8 | 45.8 | 29.6 | 39.6 | 83.6 | 44.2 | 54.7
3 | Cc1cc(-c2nc3ccc(F)cc3s2)ccc1NC(=O)C(N)CCCCN (configuration not stated) | 21.4 | 26.2 | 5.64 | 9.78 | 22.3 | 34.8 | 12.6 | 20.4 | 16.1 | 12.7 | 7.94 | 23.1 | 27.1 | 26.5 | 24 | 14.8 | 34.1 | 25.6 | 6.57 | 5
4 | CC(C)(C)OC(=O)NCC(c1c[nH]c2cc(Br)ccc12)c1c[nH]c2cc(Br)ccc12 | 38.4 | 31.7 | 48.7 | 64.2 | 36.5 | 83.4 | 49.6 | 34.2 | 35.2 | 33.2 | > 100 | 34 | 46.4 | 32.8 | 34.5 | 34.7 | 31.7 | 30.3 | 37.3 | 34.4
5 | COc1ccc2nc(N/N=C/c3ccc(C)s3)cc(C)c2c1 | 33.5 | 34.7 | – | > 100 | 55.7 | > 100 | 46.4 | 30.5 | 46.4 | 39.6 | 35.5 | 41.6 | 55.2 | 87.9 | 41 | 38.5 | 58.7 | 37.8 | 37.7 | 38.2
6 | Cc1cn(C(CO)OC(CO)CN(O)C2C3CC4CC(C3)CC2C4)c(=O)[nH]c1=O (configuration not stated) | > 100 | > 100 | > 100 | > 100 | > 100 | > 100 | > 100 | > 100 | > 100 | > 100 | > 100 | > 100 | > 100 | > 100 | > 100 | > 100 | – | > 100 | > 100 | > 100
7 | COC(=O)c1ccc(Oc2nc3ccc(C(F)(F)F)cc3nc2-c2ccccc2)cc1 | > 100 | > 100 | > 100 | > 100 | > 100 | > 100 | > 100 | > 100 | > 100 | > 100 | > 100 | – | > 100 | > 100 | > 100 | > 100 | > 100 | > 100 | – | > 100
8 | COP(=O)(/C=C/C(NC(=O)C(Cl)(Cl)Cl)c1ccccc1)OC (configuration not stated) | > 100 | > 100 | > 100 | > 100 | > 100 | > 100 | > 100 | > 100 | > 100 | > 100 | > 100 | > 100 | > 100 | > 100 | > 100 | > 100 | > 100 | > 100 | > 100 | > 100
9 | NC1=Nc2ccccc2Sc2nccn21 | 43 | > 100 | > 100 | 45 | > 100 | > 100 | 54.3 | 33.6 | 98.9 | 57.4 | 49.4 | > 100 | 79.1 | > 100 | 48.1 | 35.4 | 34.6 | 91 | 32.8 | 59.7
10 | C[C@@H](c1ccccc1)N1C[C@@H](c2ccc3c(c2)OCO3)[C@@H]2C(=O)CCC[C@@H]21 | 76.7 | > 100 | > 100 | > 100 | > 100 | 76 | > 100 | > 100 | > 100 | > 100 | 77.6 | 94.8 | > 100 | > 100 | > 100 | 42.4 | 87.5 | 67.2 | 36.9 | > 100
11 | CC(C)CC(C#CCCOC(=O)c1ccccc1)OC(=O)c1ccccc1 (configuration not stated) | > 10 | > 10 | > 10 | > 10 | > 10 | > 10 | > 10 | > 10 | > 10 | > 10 | > 10 | > 10 | > 10 | > 10 | > 10 | – | > 10 | > 10 | > 10 | > 10
12 | C[C@H](CCC(=O)O)[C@H]1CC[C@H]2[C@@H]3[C@H](O)[C@H](O)[C@@H]4C[C@H](O)CC[C@]4(C)[C@H]3CC[C@]12C | > 100 | > 100 | > 100 | > 100 | > 100 | > 100 | > 100 | – | > 100 | > 100 | > 100 | > 100 | > 100 | > 100 | > 100 | > 100 | > 100 | > 100 | > 100 | > 100
13 | Cc1nc(-c2cccnc2)sc1C(=O)CC(=O)C(=O)Nc1cccc(NC(=O)C(=O)CC(=O)c2sc(-c3cccnc3)nc2C)n1 | > 100 | > 100 | > 100 | > 100 | > 100 | > 100 | > 100 | > 100 | > 100 | – | > 100 | > 100 | > 100 | > 100 | > 100 | > 100 | > 100 | > 100 | > 100 | > 100
14 | CCc1cc2c(cc1C(=O)CCC(=O)O)CC1(C2)Cc2cc(CC)c(C(=O)CCC(=O)O)cc2C1 | > 100 | > 100 | > 100 | > 100 | > 100 | > 100 | > 100 | > 100 | > 100 | > 100 | > 100 | > 100 | > 100 | > 100 | > 100 | > 100 | > 100 | > 100 | > 100 | > 100
15 | CCOP(=O)(OCC)/C(=C\n1ccc(=O)[nH]c1=S)C(=O)OC | > 100 | > 100 | > 100 | > 100 | > 100 | > 100 | > 100 | > 100 | > 100 | > 100 | > 100 | > 100 | > 100 | > 100 | > 100 | > 100 | > 100 | > 100 | > 100 | > 100
16 | O=S(=O)(O)c1ccc(N=Nc2ccc(N=Nc3c(O)ccc4ccc(S(=O)(=O)O)cc34)cc2)cc1 | > 100 | > 100 | > 100 | > 100 | > 100 | > 100 | – | > 100 | > 100 | > 100 | > 100 | > 100 | > 100 | > 100 | > 100 | > 100 | > 100 | > 100 | > 100 | > 100
17 | COc1ccc(/C(=N/OCCCC(=O)O)c2cccs2)cc1 | > 100 | > 100 | > 100 | > 100 | > 100 | – | > 100 | > 100 | > 100 | > 100 | > 100 | > 100 | > 100 | > 100 | > 100 | > 100 | > 100 | > 100 | – | > 100
18 | C=CC(=C)CCC(Br)C(C)(C)Br (configuration not stated) | > 100 | > 100 | > 100 | 55.1 | > 100 | > 100 | > 100 | > 100 | > 100 | > 100 | 45.7 | > 100 | > 100 | > 100 | > 100 | > 100 | > 100 | > 100 | > 100 | > 100
19 | Cc1cc2c3c(nc2c2cc[nH]c(C)c12)CCCC3 | 3.43 | 11.1 | 4.27 | 3.76 | 4.96 | 3.57 | 4.02 | 2.89 | 4.53 | 3.62 | 4.32 | 3.2 | 4.41 | 8.44 | 29.6 | 3.37 | 2.74 | 15 | 3.63 | 3.32
20 | CCN(CC)CCOCCOCC1(c2ccc(Cl)c(Cl)c2)CCCCC1 | 14.8 | 22.1 | 13.3 | 21 | 28.8 | 12.3 | 20.4 | 4.88 | 17.7 | 22 | 13.2 | 28.6 | 13.8 | 23 | 35.1 | 11.9 | 13.3 | 28.5 | 3.29 | 13.8
21 | CCOC(=O)C1=NN(c2ccc(C)cc2)C2(c3ccccc3)C=C(c3ccccc3)N(C)CCN12 (configuration not stated) | > 100 | > 100 | – | > 100 | > 100 | > 100 | > 100 | > 100 | > 100 | > 100 | > 100 | > 100 | > 100 | > 100 | > 100 | > 100 | > 100 | > 100 | > 100 | > 100
22 | C[C@H](CCC(=O)O)[C@H]1CC[C@H]2[C@@H]3[C@@H](O)C[C@@H]4C[C@H](O)CC[C@]4(C)[C@H]3C[C@H](O)[C@]12C | > 100 | > 100 | > 100 | > 100 | > 100 | > 100 | > 100 | – | > 100 | > 100 | > 100 | > 100 | > 100 | > 100 | > 100 | > 100 | > 100 | > 100 | > 100 | > 100
23 | COC(=O)[C@H](Cc1ccccc1)NC(=O)OCC1OC(n2cc(C)c(=O)[nH]c2=O)CC1N=[N+]=[N-] (some centres not stated) | > 100 | > 100 | > 100 | > 100 | > 100 | – | > 100 | > 100 | > 100 | > 100 | > 100 | > 100 | > 100 | > 100 | > 100 | > 100 | > 100 | > 100 | > 100 | > 100
